From ChEMBL document CHEMBL2203143, “Synthesis and antiproliferative activities of ottelione a analogues” (ACS Med Chem Lett, 2012)
Calls of active or inactive are those of the source. No cut-off for these calls is given here.

What was measured:
NCI-H460 [1] = assay: Antiproliferative activity against human NCI-H460 cells assessed as cell viability after 72 hrs by CellTiter96 assay; format: functional, cell-based; conditions: NCI-H460, 72 h
HCT-116 = assay: Antiproliferative activity against human HCT116 cells assessed as cell viability after 72 hrs by CellTiter96 assay; format: functional, cell-based; conditions: HCT-116, 72 h
A-375 = assay: Antiproliferative activity against human A375 cells assessed as cell viability after 72 hrs by CellTiter96 assay; format: functional, cell-based; conditions: A-375, 72 h
Tubulin (Sus scrofa) [2] = target: T1, Tubulin (Sus scrofa) (UniProt P02554+P02550); assay: Displacement of [3H]colchicine from tubulin in pig brain at 10 uM after 16 hrs by scintillation proximity assay
MCF7 [3] = assay: Antiproliferative activity against human MCF7 cells assessed as cell viability after 72 hrs by CellTiter96 assay; format: functional, cell-based; conditions: MCF7, 72 h
KB = assay: Antiproliferative activity against human KB cells assessed as cell viability after 72 hrs by CellTiter96 assay; format: functional, cell-based
COLO 205 [4] = assay: Antiproliferative activity against human COLO205 cells assessed as cell viability after 72 hrs by CellTiter96 assay; format: functional, cell-based; conditions: COLO 205, 72 h
Tubulin (Sus scrofa) [5] = target: T1, Tubulin (Sus scrofa); assay: Inhibition of pig neuronal tubulin polymerization at 10 uM by fluorescence analysis; format: protein assay
NCI-H460 [6] = assay: Ratio of ottelione A IC50 to compound IC50 for human NCI-H460 cells after 72 hrs by CellTiter96 assay; format: functional
COLO 205 [7] = assay: Ratio of ottelione A IC50 to compound IC50 for human COLO205 cells after 72 hrs by CellTiter96 assay; format: functional
MCF7 [8] = assay: Ratio of ottelione A IC50 to compound IC50 for human MCF7 cells after 72 hrs by CellTiter96 assay; format: functional

T1 sequence (P02550 whole entry, looked up): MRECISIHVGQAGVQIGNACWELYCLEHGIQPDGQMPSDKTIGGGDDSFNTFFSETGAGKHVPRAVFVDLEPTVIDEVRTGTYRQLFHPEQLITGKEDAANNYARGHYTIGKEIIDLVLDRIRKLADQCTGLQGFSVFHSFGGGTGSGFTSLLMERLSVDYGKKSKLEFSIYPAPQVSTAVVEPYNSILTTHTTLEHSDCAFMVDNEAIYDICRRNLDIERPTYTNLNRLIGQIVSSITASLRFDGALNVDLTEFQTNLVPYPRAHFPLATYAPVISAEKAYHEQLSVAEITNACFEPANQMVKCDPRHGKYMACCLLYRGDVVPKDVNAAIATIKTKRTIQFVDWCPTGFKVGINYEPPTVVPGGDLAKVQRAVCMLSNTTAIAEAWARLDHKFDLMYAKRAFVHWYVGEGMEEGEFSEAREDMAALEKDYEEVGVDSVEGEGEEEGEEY
T1 sequence (P02554 whole entry, looked up): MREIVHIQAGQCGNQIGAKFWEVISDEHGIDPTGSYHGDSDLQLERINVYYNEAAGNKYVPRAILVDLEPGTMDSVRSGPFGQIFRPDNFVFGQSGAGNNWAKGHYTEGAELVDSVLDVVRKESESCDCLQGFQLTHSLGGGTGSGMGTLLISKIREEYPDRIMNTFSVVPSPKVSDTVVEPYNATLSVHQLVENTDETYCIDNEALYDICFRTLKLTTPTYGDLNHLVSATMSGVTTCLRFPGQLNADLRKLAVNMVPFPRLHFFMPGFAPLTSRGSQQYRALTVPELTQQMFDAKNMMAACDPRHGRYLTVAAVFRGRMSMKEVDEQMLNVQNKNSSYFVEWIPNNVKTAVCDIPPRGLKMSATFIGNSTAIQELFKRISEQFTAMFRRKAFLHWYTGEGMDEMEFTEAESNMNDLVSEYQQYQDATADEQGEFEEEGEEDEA

IC50 (NCI-H460 [1]) [nM]	IC50 (HCT-116) [nM]	IC50 (A-375) [nM]	inhibition (Tubulin (Sus scrofa) [2]) [%]	IC50 (MCF7 [3]) [nM]	IC50 (KB) [nM]	IC50 (COLO 205 [4]) [nM]	inhibition (Tubulin (Sus scrofa) [5])	SMILES	Ratio IC50 (NCI-H460 [6])	Ratio IC50 (COLO 205 [7])	Ratio IC50 (MCF7 [8])
226	129	77.4	69.3	63.6	208	219	–	C=C1C=CC(=O)[C@@H]2[C@H](Cc3ccc(OCOC)cc3)CC[C@H]12 (racemic)	–	–	–
> 1000	> 1000	> 1000	8.93	> 1000	> 1000	> 1000	–	C=C1C=CC(=O)[C@@H]2[C@H](Cc3cc(OC)c(OC)c(OC)c3)CC[C@H]12 (racemic)	–	–	–
106	77.4	40	68.9	77.2	76.6	75.7	–	C=C1C=CC(=O)[C@@H]2[C@H](Cc3ccc(OCOC)c(F)c3)CC[C@H]12 (racemic)	–	–	–
229	126	98.4	37.3	147	156	3000	–	C=C1C=CC(=O)[C@@H]2[C@H](Cc3ccc(O)c(F)c3)CC[C@H]12 (racemic)	–	–	–
511	235	222	61.7	233	478	428	–	C=C1C=CC(=O)[C@@H]2[C@H](Cc3ccc(F)c(F)c3)CC[C@H]12 (racemic)	–	–	–
2.62	1.11	1.68	97.1	0.13	2.77	2.45	Active	C=C1C=CC(=O)[C@@H]2[C@H](Cc3ccc(OC)c(F)c3)CC[C@H]12 (racemic)	6	6	6
16	3.01	1.07	95.8	3.73	4.94	244	Active	C=C1C=CC(=O)[C@@H]2[C@H](Cc3ccc(OC)c(O)c3)CC[C@H]12 (racemic)	–	–	–
> 1000	> 1000	914	39.2	> 1000	> 1000	> 1000	–	COc1ccc(C[C@@H]2CC[C@@H]3CC=CC(=O)[C@@H]32)cc1O (racemic)	–	–	–
24.6	14	9.2	96.1	26.3	22.6	739	–	CC=C1C=CC(=O)[C@@H]2[C@H](Cc3ccc(OC)c(O)c3)CC[C@H]12 (racemic)	–	–	–
678	257	237	43.2	260	591	547	–	C=C1C=CC(=O)[C@@H]2[C@H](Cc3ccccc3)CC[C@H]12 (racemic)	–	–	–
77.6	38.5	30.8	71.6	33.8	68.8	218	–	C=C1C=CC(=O)[C@@H]2[C@H](Cc3ccc(O)cc3)CC[C@H]12 (racemic)	–	–	–
14.5	0.74	0.4	98.3	1.17	1.59	92.8	Active	C=C[C@@H]1C[C@@H](Cc2ccc(OC)c(O)c2)[C@H]2C(=O)C=CC(=C)[C@H]21 (racemic)	–	–	–
